Among the data in ChEMBL document CHEMBL5532655, “Discovery of (R)-4-(8-methoxy-2-methyl-1-(1-phenylethy)-1H-imidazo[4,5-c]quinnolin-7-yl)-3,5-dimethylisoxazole as a potent and selective BET inhibitor for treatment of acute myeloid leukemia (AML) guided by FEP calculation” (Eur J Med Chem, 2024) are Activity and CL/F values, retold here.

The subject of series [1] is MV4-11. The series can be described thus: Induction of cell cycle arrest in human MV4-11 cells assessed as accumulation of cells at S phase at 0.3125 uM incubated for 24 hrs by propidium iodide staining flow cytometric analysis (reference value: 43.94 %). It counts as functional. (Flow cytometry measures light scatter and fluorescence of single cells or particles in a stream.)

The nature of series [2]: Apparent oral clearance in Sprague-Dawley rat at 10 mg/kg,po administration measured upto 24 hrs by LC-MS/MS analysis. It counts as ADME, organism-based. The following applies: in vivo.

For the compound `COc1cc2c(cc1-c1c(C)noc1C)ncc1nc(C)n([C@H](C)c3ccccc3)c12`, the Activity in series [1] was found to be 44.55%. Also, in series [2], the apparent clearance CL/F was 10.4 mL/min/kg.

In general, CL/F refers to clearance divided by bioavailability, as obtained after extravascular dosing.
